Measurements from US8088763B2 (priority 2004, dated 2012).

How the values were obtained:
5HT-uptake = biological target: T1, 5HT-uptake (Rattus norvegicus, UniProt P31652); test: biochemical; details: for inhibition at 10 µM: read-out: 5HT-uptake [10 μM], % inhibition
T1 construct: synaptosomes were freshly isolated from areas of rats' brains

NA-uptake = NA-uptake (Rattus norvegicus, UniProt Q63380); test: biochemical; details: for inhibition at 10 µM: read-out: NA-uptake [10 μM], % inhibition
Sequence of NA-uptake (Q63380 1-617): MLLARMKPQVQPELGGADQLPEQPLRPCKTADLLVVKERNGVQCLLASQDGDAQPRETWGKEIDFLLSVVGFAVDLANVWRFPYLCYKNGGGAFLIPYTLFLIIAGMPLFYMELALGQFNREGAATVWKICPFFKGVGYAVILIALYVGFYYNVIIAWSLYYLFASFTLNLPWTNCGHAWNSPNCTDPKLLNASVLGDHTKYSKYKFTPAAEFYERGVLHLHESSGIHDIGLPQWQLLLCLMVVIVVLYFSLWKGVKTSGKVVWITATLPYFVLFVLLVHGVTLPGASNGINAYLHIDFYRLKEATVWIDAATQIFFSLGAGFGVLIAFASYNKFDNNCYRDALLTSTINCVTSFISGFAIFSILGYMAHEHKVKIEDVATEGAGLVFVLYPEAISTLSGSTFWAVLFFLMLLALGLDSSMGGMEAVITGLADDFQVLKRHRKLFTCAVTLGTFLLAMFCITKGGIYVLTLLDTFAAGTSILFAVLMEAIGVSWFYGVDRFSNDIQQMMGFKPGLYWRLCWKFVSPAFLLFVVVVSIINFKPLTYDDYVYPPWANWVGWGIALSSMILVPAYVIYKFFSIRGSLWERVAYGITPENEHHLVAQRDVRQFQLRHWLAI

T1 sequence (P31652 whole entry): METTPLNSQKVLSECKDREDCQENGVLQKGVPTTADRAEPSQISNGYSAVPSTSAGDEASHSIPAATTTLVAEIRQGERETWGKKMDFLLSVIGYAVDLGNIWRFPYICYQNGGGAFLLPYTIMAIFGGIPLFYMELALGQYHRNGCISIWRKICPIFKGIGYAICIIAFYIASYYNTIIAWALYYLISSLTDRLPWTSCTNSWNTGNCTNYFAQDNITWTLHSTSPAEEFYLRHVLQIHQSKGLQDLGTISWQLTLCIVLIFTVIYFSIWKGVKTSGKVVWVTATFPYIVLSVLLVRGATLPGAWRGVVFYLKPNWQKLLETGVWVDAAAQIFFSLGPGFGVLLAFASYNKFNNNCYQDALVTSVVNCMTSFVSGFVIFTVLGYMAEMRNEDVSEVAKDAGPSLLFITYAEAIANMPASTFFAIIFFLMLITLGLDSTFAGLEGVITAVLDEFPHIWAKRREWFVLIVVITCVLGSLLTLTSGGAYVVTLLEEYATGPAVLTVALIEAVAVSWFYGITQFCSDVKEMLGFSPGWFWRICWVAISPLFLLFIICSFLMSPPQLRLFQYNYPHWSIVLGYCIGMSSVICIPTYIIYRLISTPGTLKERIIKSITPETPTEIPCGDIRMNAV

| SMILES | inhibition at 10 µM (5HT-uptake) | inhibition at 10 µM (NA-uptake) | 5HT-uptake [10 μM], % inhibition (5HT-uptake) | NA-uptake [10 μM], % inhibition (NA-uptake) |
| --- | --- | --- | --- | --- |
| Cc1ccc(CC2(N(C)C)CCC(NC(=O)CCC(=O)NC3CCN(Cc4c(Cl)cccc4Cl)C3)CC2)cc1 (centres unmarked) [Example 1, N-[1-(2,6-dichloro-benzyl)-pyrrolidin-3-yl]-N′-[4-dimethylamino-4-(4-methyl-benzyl)-cyclohexyl]-succinamide] | 93% | 71% | – | – |
| CN(C)C1(Cc2cccc(Cl)c2)CCC(NC(=O)CCC(=O)NC2CCOC2=O)CC1 (centres unmarked) [Example 2, N-[4-(3-chloro-benzyl)-4-dimethylamino-cyclohexyl]-N′-(2-oxo-tetrahydro-furan-3-yl)-succinamide] | 95% | 87% | – | – |
| CN(C)C1(Cc2ccc(Cl)cc2)CCC(NC(=O)CCC(=O)NCCC(c2ccccc2)c2ccccc2)CC1 (centres unmarked) [Example 3, N-[4-(4-chloro-benzyl)-4-dimethylamino-cyclohexyl]-N′-(3,3-diphenyl-propyl)-succinamide] | 94% | 89% | – | – |
| COc1cc(CN2CCN(C(=O)CCC(=O)NC3CCC(Cc4ccc(C)cc4)(N(C)C)CC3)CC2)cc2c1OCO2 (centres unmarked) [Example 4, N-[4-dimethylamino-4-(4-methyl-benzyl)-cyclohexyl]-4-[4-(7-methoxy-benzo[1,3]dioxol-5-ylmethyl)-piperazin-1-yl]-4-oxo-butyramide] | 92% | 89% | – | – |
| CN(C)C1(Cc2ccc(Cl)cc2)CCC(NC(=O)CCC(=O)N2CC=CCC2)CC1 (centres unmarked) [Example 5, N-[4-(4-chloro-benzyl)-4-dimethylamino-cyclohexyl]-4-(3,6-dihydro-2H-pyridin-1-yl)-4-oxo-butyramide] | 93% | 80% | – | – |
| Cc1ccc(CC2(N(C)C)CCC(NC(=O)CCC(=O)N3CCN(c4cccc(C)c4)CC3)CC2)cc1 (centres unmarked) [Example 6, N-[4-dimethylamino-4-(4-methyl-benzyl)-cyclohexyl]-4-oxo-4-(4-m-tolyl-piperazin-1-yl)-butyramide] | 96% | 91% | – | – |
| CCOC(=O)C(C)NC(=O)CCC(=O)NC1CCC(Cc2ccc(Cl)cc2)(N(C)C)CC1 (centres unmarked) [Example 7, 2-{3-[4-(4-chloro-benzyl)-4-dimethylamino-cyclohexylcarbamoyl]-propionylamino}-propanoic acid ethylester] | 93% | 91% | – | – |
| CN(C)C1(Cc2cccc(Cl)c2)CCC(NC(=O)CCC(=O)N2CCc3[nH]c4ccc(F)cc4c3C2)CC1 (centres unmarked) [Example 8, N-[4-(3-chloro-benzyl)-4-dimethylamino-cyclohexyl]-4-(8-fluoro-1,3,4,5-tetrahydro-pyrido[4,3-b]indol-2-yl)-4-oxo-butyramide] | 92% | 85% | – | – |
| CCOC(=O)CCNC(=O)CCC(=O)NC1CCC(Cc2ccc(C)cc2)(N(C)C)CC1 (centres unmarked) [Example 9, 3-{3-[4-dimethylamino-4-(4-methyl-benzyl)-cyclohexylcarbamoyl]-propionylamino}-propanoic acid ethylester] | 93% | 91% | – | – |
| Cc1ccc(CC2(N(C)C)CCC(NC(=O)CCC(=O)N3CCN(C(=O)c4cnc(C)cn4)CC3)CC2)cc1 (centres unmarked) [Example 10, N-[4-dimethylamino-4-(4-methyl-benzyl)-cyclohexyl]-4-[4-(5-methyl-pyrazin-2-carbonyl)-piperazin-1-yl]-4-oxo-butyramide] | 92% | 78% | – | – |
| Cc1ccc(CC2(N(C)C)CCC(NC(=O)CCC(=O)N(C)CCNC(=O)C(F)(F)F)CC2)cc1 (centres unmarked) [Example 11, N-[4-dimethylamino-4-(4-methyl-benzyl)-cyclohexyl]-N′-methyl-N′-[2-(2,2,2-trifluoro-acetylamino)-ethyl]-succinamide] | 92% | 77% | – | – |
| CN(C)C1(Cc2cccc(Cl)c2)CCC(NC(=O)CCC(=O)NCCc2ccccn2)CC1 (centres unmarked) [Example 12, N-[4-(3-chloro-benzyl)-4-dimethylamino-cyclohexyl]-N′-(2-pyridin-2-yl-ethyl)-succinamide] | 92% | 95% | – | – |
| CN(C)C1(Cc2ccc(Cl)cc2)CCC(NC(=O)CCC(=O)N2CCSCC2)CC1 (centres unmarked) [Example 13, N-[4-(4-chloro-benzyl)-4-dimethylamino-cyclohexyl]-4-oxo-4-thiomorpholin-4-yl-butyramide] | 92% | 72% | – | – |
| Cc1cnc(C(=O)N2CCN(C(=O)CCC(=O)NC3CCC(Cc4ccc(Cl)cc4)(N(C)C)CC3)CC2)cn1 (centres unmarked) [Example 14, N-[4-(4-chloro-benzyl)-4-dimethylamino-cyclohexyl]-4-[4-(5-methyl-pyrazin-2-carbonyl)-piperazin-1-yl]-4-oxo-butyramide] | 95% | 78% | – | – |
| CCOc1ccc(N2CCN(C(=O)CCC(=O)NC3CCC(Cc4ccc(Cl)cc4)(N(C)C)CC3)CC2)cc1 (centres unmarked) [Example 16, N-[4-(4-chloro-benzyl)-4-dimethylamino-cyclohexyl]-4-[4-(4-ethoxy-phenyl)-piperazin-1-yl]-4-oxo-butyramide] | 97% | 86% | – | – |
| C=CCN(C)C(=O)CCC(=O)NC1CCC(Cc2ccc(Cl)cc2)(N(C)C)CC1 (centres unmarked) [Example 17, N-allyl-N′-[4-(4-chloro-benzyl)-4-dimethylamino-cyclohexyl]-N-methyl-succinamide] | 93% | 82% | – | – |
| COc1ccc(OC)c(CN2CCN(C(=O)CCCC(=O)NC3CCC(Cc4ccccc4)(N(C)C)CC3)CC2)c1 (centres unmarked) [Example 18, 5-[4-(2,5-dimethoxy-benzyl)-piperazin-1-yl]-5-oxo-valeric acid (4-benzyl-4-dimethylamino-cyclohexyl)-amide] | 94% | 84% | – | – |
| Cc1ccc(CC2(N(C)C)CCC(NC(=O)CCC(=O)N3CC=CCC3)CC2)cc1 (centres unmarked) [Example 19, 4-(3,6-dihydro-2H-pyridin-1-yl)-N-[4-dimethylamino-4-(4-methyl-benzyl)-cyclohexyl]-4-oxo-butyramide] | 93% | 74% | – | – |
| Cc1cccc(CC2(N(C)C)CCC(NC(=O)CCC(=O)N3CCC(C)CC3)CC2)c1 (centres unmarked) [Example 20, N-[4-dimethylamino-4-(3-methyl-benzyl)-cyclohexyl]-4-(4-methyl-piperidin-1-yl)-4-oxo-butyramide] | 92% | 90% | – | – |
| Cc1ccc(CC2(N(C)C)CCC(NC(=O)CCC(=O)N3CCN(c4ccccn4)CC3)CC2)cc1 (centres unmarked) [Example 21, N-[4-dimethylamino-4-(4-methyl-benzyl)-cyclohexyl]-4-oxo-4-(4-pyridin-2-yl-piperazin-1-yl)-butyramide] | 95% | 83% | – | – |
| Cc1cccc(CC2(N(C)C)CCC(NC(=O)CCC(=O)N(C)CC(=O)OCc3ccccc3)CC2)c1 (centres unmarked) [Example 22, ({3-[4-dimethylainino-4-(3-methyl-benzyl)-cyclohexylcarbamoyl]-propionyl}-methyl-amino)-acetic acid benzyl ester] | – | – | 95% | 93% |
| Cc1cccc(CC2(N(C)C)CCC(NC(=O)CCC(=O)N3CCN(Cc4c(Cl)cccc4Cl)CC3)CC2)c1 (centres unmarked) [Example 23, 4-[4-(2,6-dichloro-benzyl)-piperazin-1-yl]-N-[4-dimethylamino-4-(3-methyl-benzyl)-cyclohexyl]-4-oxo-butyramide] | 92% | 92% | – | – |
